Measurements: patent US20020127228A1, “PGT and apoptosis” (WELFIDE CORPORATION, priority 1998, published 2002)
“Also recorded” adds a separate entry of the source.

Assays:
PGT = target: T1, PGT (Rattus norvegicus, UniProt Q00910); experiment: Uptake of tritium-labelled PGE1 into differentiated PC12 cells through PGT; type: cell-based
T1 construct: endogenous in cells; host or cells: differentiated PC12 cells
Procedure: 1) Differentiated PC12 cells and tritium-labelled PGE1 (added concentration: 0.1 μM) were subjected to 10 mins of incubation at 37° C. Afterwards, the cells were washed with ice-cold phosphate buffered saline containing 5 g/l of bovine serum albumin and next washed with ice-cold phosphate buffered saline. Then, radioactivity was measured. The amount of PGE1 uptake into PC12 cells was calculated.
2) Bromcresol green (hereinafter noted as “BrCG”), which is a PGT inhibitor, was placed together in the culture medium at the addition of PGE1. Afterwards, treatment was conducted in the same manner as mentioned in 1).
3) The antisense oligonucleotide specific to PGT cDNA was designed as follows:
Moreover, said antisense was thioate modified. Using Lipofectin (Gibco), PC12 underwent transfection during 2 days prior to the addition of PGE1. Afterwards, treatment was conducted in the same manner as mentioned in 1).

SAPK/JNK = SAPK/JNK activation in PC12 cells after NGF withdrawal, Western blot; type: cell-based, rat; details: added with PGE1
Procedure: 4) Intercellular signals via SAPK/JNK Stress-activated protein kinase/Jun N-terminal kinase (abbreviated SAPK/JNK) is associated with apoptosis induction. Thus, intercellular signals within cells via SAPK/JNK were investigated based upon effects with respect to variations in SAPK/JNK activity.
The present experiment was performed with Western blot analysis. Individual additives were added to cell culturing medium for PC12 cells in accordance with the aforementioned experiment. Culturing was performed for 1-4 hrs after withdrawal of NGF. PC12 cells were lysed with a buffer solution, centrifuged, and the supernatant of cell lysate was prepared. After said supernatant was incubated with JNK 1 polyclonal antibodies (Santa Cruz Biotechnology) at 4° C. for 1 hr. Protein A sepharose was added to it. The resultant was incubated for 1 hr and the immunoprecipitate as described below was provided. […] of cell lysate was conducted with SDS-PAGE electrophoresis, and transferred to a nylon membrane (Amersham Pharmacia Biotech). Blotting of phosphorylated (active) JNK antibodies (Santa Cruz Biotechnology) was performed with this membrane, and bands were detected in accordance with the instruction manual. Intercellular signals within cells were amplified by chemiluminescence and auto radioactivity methods (FCL, Amersham Pharmacia Biotech).

[1] = test system: rat cerebral cortical neurons; experiment: Apoptosis induced by amyloid beta peptide in rat cerebral cortical neurons, Hoechst 33342; type: cell-based; details: for Inhibition of apoptosis induction (%): Experiment 7, test drug added with Aged-Aβ25-35
Procedure: The cortex region of embryonic day 17 or 18 rat cerebrum was extracted on ice. Cells were dispersed using a neuron dispersal solution (Sumilon) after sectioning. Afterwards, cells were dispersed to a density of 1.5×10^5 cells/cm^2 in a culturing flask that was coated with polyethyleneimine beforehand. After 4 days of culturing, the following experiment was provided. Therefore, as the culture medium, Neurobasal medium (Gibco) adding with B27 supplement (1/50 volume), 2-mercaptoethanol (27.5 μM), L-glutamic acid (25 μM), and glutamine (0.5 mM) was used.
Amyloid beta peptide 25-35 (Aβ25-35) was dissolved in distilled water to a concentration of 1 mM, incubated for 1 week at about 37° C., and Aged-Aβ25-35 was prepared. The induction of apoptosis in neuron was performed by the replacement of the aforementioned culture medium (with the exception of L-glutamicacid) containing 10 μM Aged-Aβ25-35.
4) It was investigated that the suppressing effect of PGE1 on apoptosis induced by amyloid beta peptide. After dissolution of PGE1 in ethanol, when the aforementioned 2) Aged-Aβ25-35 was added to the culture medium, simultaneously PGE1 solution was added to it. The final concentration thereof was 1 μM.
Cells were washed with PBS (−) at 24 hrs after induction of apoptosis and fixed for 30 mins at room temperature using a 1% glutaraldehyde solution (in PBS). Next, cell were washed with PBS (−) two times and followed by incubation with 1 mM Hoechst 33342 solution (in PBS) for 2 mins. Afterwards, observation of nuclear chromatin morphology was conducted using a fluorescence microscope with 4 arbitrary visual fields. Normal cells and apoptotic cells (cell where chromatin fragmentation or condensation was appeared) were counted, and the ratio was calculated as the incidence of apoptosis. The n was 3.
6) The relationship between PGT inhibitors and apoptosis induced by amyloid beta peptide was investigated. BrCG, which is a PGT inhibitor, with a final concentration of 60 μM was added simultaneously with PGE1 but other manners were in accordance with the aforementioned ones in 1)-5).
It was investigated that the influence of PGT antisense on the inhibitory effect of PGE1 against apoptosis induced by amyloid beta peptide. PGT antisense was used as it is with regard to the oligonucleotide in Experiment 3. The addition concentration thereof was 1.5 μM. Incidence of apoptosis was performed in accordance with Experiment 5. Then was 3.
1) Drugs having an inhibitory activity against induction of apoptosis by amyloid beta peptide were investigated. After dissolving test drugs (PGE1, PGK1, PGK2, and bicyclo PGE2) in ethanol, when Aged-Aβ25-35 was added to the culture medium, simultaneously test drug solution were added to it. But other manners were in accordance with Experiment 5. Ratio of normal cells and apoptotic cells allowed calculation of the rate of inhibition of apoptosis induction.

NRK52E cells = experiment: Apoptosis induced by NO donor GSNO in NRK52E kidney cells; type: cell-based, rat; details: for Effect on apoptosis in kidney cells (in words): NO donor GSNO
Procedure: 1) Apoptosis was induced by NO (nitrogen monoxide) in kidney cells. NRK52E cells, which are established from a rat renal tubule epithelial cell line, mainly derived from distal were cultured for 24 hours with a chamber slide that was coated with type-I collagen. Afterwards, the cultured medium was changed to a serum-free medium, and apoptosis was induced by addition of NOC12 (0.4 mM) or S-nitroso L-glutathione (GSNO: 1 mM), which are NO donors.
4) Inhibitory effect of PGE1 to the induction of apoptosis in kidney cells was investigated PGE1 was added simultaneously with the addition of a NO donor to a final concentration of 1 or 10 μM. After 24 hrs, cells were fixed with a 1% glutaraldehyde solution and stained with Hoechst 33342. Three visual fields were selected arbitrarily per slide, and the ratio of the cells count where nuclear fragmentation and condensation appeared was calculated with respect to the total cells in the field (magnification: 400x). The n was 5.
5) The relationship between PGT inhibitors and kidney cell apoptosis induced by GSNO was examined. With a final concentration of BrCG, which is a PGT inhibitor, of 60 μM, manners other than simultaneous addition with GSNO and PGE1 were in accordance with the aforementioned ones in 4). The PGE1 final concentration was 1 μM. The n was 3.
1) Drugs having suppressing activity on apoptosis inducted in kidney cells by an NO donor were investigated. PGK1 and bicyclo PGE2 were used as test drugs, but other manners were in accordance with Experiment 8. The final concentration of the test drugs was 1 μM. The n was 5.
2) It was investigated the effects of a PGT inhibitor on the apoptosis-suppressing activity of PGK1 and bicyclo PGE2 in kidney cells. With a final concentration of BrCG, which is a PGT inhibitor, of 60 μM, manners other than simultaneous addition of GSNO and test drugs were in accordance with the aforementioned methods in 1). The n was 4.

[2] = Hypotensive effect in anesthetized normal rats, mean blood pressure; type: in vivo, rat; design: Decrease in blood pressure: unit not given here; details: for Decrease in blood pressure: 100 μg/kg body weight into caudal artery, mean blood pressure before and after, n 3; for Hypotensive effect (in words): dose that suppresses apoptosis sufficiently
Procedure: 2) The hypotensive effect of the test drugs was examined. After anesthetizing normal rats (male, body weight of about 300 g) with intraperitoneal administration of Nembutal, the dorsal region was fixed. Next, a cannula was inserted in the carotid artery and blood pressure was measured through a transducer (Nihon Kohden Corporation); simultaneous recording was made in combination with a polygraph (Nihon Kohden Corporation). After dissolving the test drugs in ethanol, and diluted (x200) with saline. Administration was given in the caudal artery in a dose of 100 μg/kg body weight. The mean blood pressure (MBP) was measured. The decrease in blood pressure was calculated from the measured values before and after administration. The n was 3 per group.

[3] = test system: differentiated PC12 cells; experiment: Induction of apoptosis by PGT antisense in differentiated PC12 cells, TUNEL staining; type: cell-based, rat
Procedure: 1) Rat adrenal pheochromocytoma PC12 cells (obtained by: ATCC; importer: Dainippon Pharmaceutical) was cultured in a Neurobasal culture medium containing mouse β NGF (100 ng/ml), N2 supplement (1%), and TIP (5 μg/ml transferrin, 5 μg/ml insulin, and 10 ng/ml progesterone). Differentiation of neuron was performed.
2) Then, antisense solution prepared in Example 6 is added (final concentration: 600 nM) and cultured for 2 days. As a negative control, Lipofectin in alone is added in the same manner and cultured for the same period of time. Apoptosis detection is performed by TUNEL staining after cell fixation (room temperature for 30 min) with a 10% neutral formalin buffer solution. Observation was made from 6 arbitrary visual fields using a light microscope. Total cells and TUNEL (apoptosis)—positive cells were counted, and the incidence of apoptosis was calculated.

[4] = Table 13, GSNO, test drug 1 μM, n 5
[5] = Tables 14 and 15, GSNO, test drug alone, n 4

Compound | Amount of PGE1 uptake (PGT; PGE1 0.1 μM with BrCG 1 μM) | Amount of PGE1 uptake (PGT; PGE1 0.1 μM with BrCG 1 μM (second row, printed so)) | Effect on PGE1 suppression of SAPK/JNK activation (in words) (SAPK/JNK) | Effect on PGE1 inhibition of amyloid beta peptide-induced apoptosis (in words) ([1]; BrCG 60 μM with PGE1) | Effect on apoptosis-suppressing activity of the test drug in kidney cells (in words) (NRK52E cells; BrCG 60 μM, GSNO) | Effect on apoptosis induced by amyloid beta peptide (in words) [1] | Inhibition of apoptosis induction (%) [1] | Decrease in blood pressure [2] | Hypotensive effect (in words) [2] | Effect on apoptosis in kidney cells (in words) (NRK52E cells) | Incidence of apoptosis (%) (NRK52E cells; [4]) | Incidence of apoptosis (%) (NRK52E cells; [5]) | Amount of PGE1 uptake (PGT; PGE1 0.1 μM, antisense 0.5 μM transfected 2 days before) | Amount of PGE1 uptake (PGT; PGE1 0.1 μM, antisense 1.5 μM transfected 2 days before) | TUNEL-positive cells (%) ([3]; antisense 600 nM, cultured 2 days) | Induction of apoptosis (in words) ([3]; antisense addition)
Cc1c(C2(c3cc(Br)c(O)c(Br)c3C)OS(=O)(=O)c3ccccc32)cc(Br)c(O)c1Br [BrCG, Bromcresol green] | 60 ± 15 fmol/mg protein/10 mins | 20 ± 8 fmol/mg protein/10 mins | inhibited PGE1-suppressing effect | inhibited said effect of PGE1 | inhibited apoptosis-suppressing activity by PGE1; also recorded: partially inhibited apoptosis-suppressing effect | – | – | – | – | – | – | – | – | – | – | –
CCCCC[C@H](O)/C=C/[C@H]1C(=O)CC(=O)[C@@H]1CCCCCCC(=O)O [PGK1] | – | – | – | – | – | displayed activity to suppress apoptosis of neurons | 45.4% | −5 | substantially causes no decrease in blood pressure | suppressed apoptosis induced by GSNO in kidney cells | 8 ± 1 % | 8 ± 1% | – | – | – | –
CCCCC[C@H](O)/C=C/[C@H]1C(=O)CC(=O)[C@@H]1C/C=C\CCCC(=O)O [PGK2] | – | – | – | – | – | displayed activity to suppress apoptosis of neurons | 36.2% | +2 | substantially causes no decrease in blood pressure | – | – | – | – | – | – | –
CCCCC1C(=O)CC[C@H]2[C@@H]1CC(=O)[C@@H]2C/C=C\CCCC(=O)O (stereo partly shown) [bicyclo PGE2] | – | – | – | – | – | displayed activity to suppress apoptosis of neurons | 40.6% | 0 | substantially causes no decrease in blood pressure | suppressed apoptosis induced by GSNO in kidney cells | 6 ± 1 % | 9 ± 2% | – | – | – | –
PGT antisense: antisense oligonucleotide specific to PGT, 5′-GGCTTGAGCAGGAGCCCCAT-3′, thioate modified, used with Lipofectin (all phosphorothioate, sugars by position and methylation of C not given here) | – | – | inhibited PGE1-suppressing effect | – | – | – | – | – | – | – | – | – | 56 ± 17 fmol/mg protein/10 mins | 14 ± 14 fmol/mg protein/10 mins | 12.9 ± 1.1% | apoptosis have been induced
